Reference: ChEMBL document CHEMBL4000186, “Design and synthesis of novel 2-substituted 11-keto-boswellic acid heterocyclic derivatives as anti-prostate cancer agents with Pin1 inhibition ability” (Eur J Med Chem, 2017)

How the values were obtained:
PC-3 [1] = assay: Cell cycle arrest in human PC3 cells assessed as accumulation at G2/M phase at 2.5 uM after 24 hrs by propidium iodide staining based flow cytometry (reference value: 22.7 %); format: functional
PC-3 [2] = assay: Cell cycle arrest in human PC3 cells assessed as accumulation at G0/G1 phase at 1 uM after 12 hrs by propidium iodide staining based flow cytometry (reference value: 65.6 %); format: functional
PC-3 [3] = assay: Cell cycle arrest in human PC3 cells assessed as accumulation at sub G1 phase at 2.5 uM after 24 hrs by propidium iodide staining based flow cytometry (reference value: 1.9 %); format: functional
PC-3 [4] = assay: Induction of apoptosis in human PC3 cells assessed as decrease in pro-caspase 8 level measured after 24 hrs by Western blot method; format: functional, cell-based
PC-3 [5] = assay: Cell cycle arrest in human PC3 cells assessed as accumulation at G0/G1 phase at 2.5 uM after 24 hrs by propidium iodide staining based flow cytometry (reference value: 63.9 %); format: functional
PC-3 [6] = assay: Cell cycle arrest in human PC3 cells assessed as accumulation at G0/G1 phase at 1 uM after 24 hrs by propidium iodide staining based flow cytometry (reference value: 63.9 %); format: functional
PC-3 [7] = assay: Cell cycle arrest in human PC3 cells assessed as accumulation at sub G1 phase at 5 uM after 24 hrs by propidium iodide staining based flow cytometry (reference value: 1.9 %); format: functional
PC-3 [8] = assay: Cell cycle arrest in human PC3 cells assessed as accumulation at sub G1 phase at 1 uM after 24 hrs by propidium iodide staining based flow cytometry (reference value: 1.9 %); format: functional
[9] = target: T1, Peptidyl-prolyl cis-trans isomerase NIMA-interacting 1 (Homo sapiens, UniProt Q13526); assay: Inhibition of Pin1 in human PC3 cells assessed as downregulation of cyclin D1 expression measured after 24 hrs by Western blot method; format: cell-based
T1 sequence (Q13526 whole entry): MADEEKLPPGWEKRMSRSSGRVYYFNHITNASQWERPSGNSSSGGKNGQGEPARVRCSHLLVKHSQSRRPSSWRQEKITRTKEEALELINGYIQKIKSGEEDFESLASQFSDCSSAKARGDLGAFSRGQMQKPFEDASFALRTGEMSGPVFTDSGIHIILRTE

PC-3 [10] = assay: Induction of apoptosis in human PC3 cells assessed as downregulation of Mcl-1 expression measured after 24 hrs by Western blot method; format: functional, cell-based
PC-3 [11] = assay: Induction of apoptosis in human PC3 cells assessed as decrease in pro-caspase 9 level measured after 24 hrs by Western blot method; format: functional, cell-based
PC-3 [12] = assay: Cell cycle arrest in human PC3 cells assessed as accumulation at G0/G1 phase at 5 uM after 12 hrs by propidium iodide staining based flow cytometry (reference value: 65.6 %); format: functional
PC-3 [13] = assay: Cell cycle arrest in human PC3 cells assessed as accumulation at sub G1 phase at 5 uM after 12 hrs by propidium iodide staining based flow cytometry (reference value: 1.6 %); format: functional
PC-3 [14] = assay: Cell cycle arrest in human PC3 cells assessed as accumulation at G2/M phase at 1 uM after 12 hrs by propidium iodide staining based flow cytometry (reference value: 22.4 %); format: functional
PC-3 [15] = assay: Cell cycle arrest in human PC3 cells assessed as accumulation at sub G1 phase at 1 uM after 12 hrs by propidium iodide staining based flow cytometry (reference value: 1.6 %); format: functional
PC-3 [16] = assay: Induction of apoptosis in human PC3 cells assessed as decrease in pro-caspase 3 level measured after 24 hrs by Western blot method; format: functional, cell-based
PC-3 [17] = assay: Cell cycle arrest in human PC3 cells assessed as accumulation at G0/G1 phase at 2.5 uM after 12 hrs by propidium iodide staining based flow cytometry (reference value: 65.6 %); format: functional
PC-3 [18] = assay: Cell cycle arrest in human PC3 cells assessed as accumulation at sub G1 phase at 2.5 uM after 12 hrs by propidium iodide staining based flow cytometry (reference value: 1.6 %); format: functional
PC-3 [19] = assay: Cell cycle arrest in human PC3 cells assessed as accumulation at G2/M phase at 5 uM after 12 hrs by propidium iodide staining based flow cytometry (reference value: 22.4 %); format: functional
PC-3 [20] = assay: Induction of apoptosis in human PC3 cells assessed as downregulation of c-FLIP expression measured after 24 hrs by Western blot method; format: functional, cell-based
PC-3 [21] = assay: Induction of apoptosis in human PC3 cells assessed as induction of NOXA expression measured after 24 hrs by Western blot method; format: functional, cell-based
PC-3 [22] = assay: Cell cycle arrest in human PC3 cells assessed as accumulation at G0/G1 phase at 5 uM after 24 hrs by propidium iodide staining based flow cytometry (reference value: 63.9 %); format: functional
[23] = target: T1, Peptidyl-prolyl cis-trans isomerase NIMA-interacting 1; assay: Inhibition of Pin1 (unknown origin) using Suc-Ala-Glu-cis-Pro-Phe-4-nitroanilide as substrate preincubated for 30 mins followed by substrate addition measured for 90 secs by protease-enzyme coupled assay
LNCaP = assay: Anti-proliferative activity against human LNCAP cells measured after 96 hrs by MTT assay; format: functional
PC-3 [24] = assay: Anti-proliferative activity against human PC3 cells measured after 96 hrs by MTT assay; format: functional; conditions: PC-3, 96 h
PC-3 [25] = assay: Cell cycle arrest in human PC3 cells assessed as accumulation at G2/M phase at 5 uM after 24 hrs by propidium iodide staining based flow cytometry (reference value: 22.7 %); format: functional
PC-3 [26] = assay: Cell cycle arrest in human PC3 cells assessed as accumulation at G2/M phase at 2.5 uM after 12 hrs by propidium iodide staining based flow cytometry (reference value: 22.4 %); format: functional
PC-3 [27] = assay: Cell cycle arrest in human PC3 cells assessed as accumulation at G2/M phase at 1 uM after 24 hrs by propidium iodide staining based flow cytometry (reference value: 22.7 %); format: functional

C[C@H]1[C@H](C)CC[C@]2(C)CC[C@]3(C)C(=CC(=O)[C@@H]4[C@@]5(C)C=C(C#N)C(=O)[C@](C)(C(=O)N6CCNCC6)[C@@H]5CC[C@]43C)[C@H]12
Activity (PC-3 [1]): 22% | Activity (PC-3 [2]): 58.5% | Activity (PC-3 [3]): 34.6% | Activity (PC-3 [4]): Dose-dependent effect | Activity (PC-3 [5]): 33.7% | Activity (PC-3 [6]): 45.4% | Activity (PC-3 [7]): 88.1% | Activity (PC-3 [8]): 8% | inhibition [9]: Dose-dependent effect | Activity (PC-3 [10]): Dose-dependent effect | Activity (PC-3 [11]): Dose-dependent effect | Activity (PC-3 [12]): 47.8% | Activity (PC-3 [13]): 19.5% | Activity (PC-3 [14]): 26.1% | Activity (PC-3 [15]): 2.7% | Activity (PC-3 [16]): Dose-dependent effect | Activity (PC-3 [17]): 52.2% | Activity (PC-3 [18]): 10.2% | Activity (PC-3 [19]): 22.8% | Activity (PC-3 [20]): Dose-dependent effect | Activity (PC-3 [21]): Dose-dependent effect | Activity (PC-3 [22]): 3.7% | IC50 [23]: 3.57 µM | GI50 (LNCaP): 0.27 µM | GI50 (PC-3 [24]): 0.04 µM | Activity (PC-3 [25]): 1.8% | Activity (PC-3 [26]): 27.6% | Activity (PC-3 [27]): 29.7%
